Measured values reported in ChEMBL document CHEMBL1201862, “PubChem BioAssay data set” (2004).
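Results reflect a 48-hour exposure of cells in 96-well plates to compound at five concentrations. GI50: concentration for 50% inhibition of growth.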 Activity calls are given as the source filed them. No stated cut-off is given here; in the data, active = GI50 up to about 1.1 µM and inactive = higher. Where a SMILES comes first, the peptide text is derived from it. The star is where a group is joined. Fmoc = O=C(OCC1c2ccccc2-c2ccccc21)*; OBn = c1ccc(CO*)cc1; tBu = CC(C)(C)*

Key:
Test in all cases: NCI tumour cell line growth inhibition, 48 h
MDA-MB-435 = tested on: MDA-MB-435
UACC-62 = tested on: UACC-62
EKVX = tested on: EKVX
OVCAR-8 = tested on: OVCAR-8
LOX IMVI = tested on: LOX IMVI
TK-10 = tested on: TK-10
CCRF-CEM = tested on: CCRF-CEM
SK-MEL-2 = tested on: SK-MEL-2
786-0 = tested on: 786-0
SN12C = tested on: SN12C
OVCAR-4 = tested on: OVCAR-4
M14 = tested on: M14
A498 = tested on: A498
SK-MEL-28 = tested on: SK-MEL-28
NCI-H226 = tested on: NCI-H226
Malme-3M = tested on: Malme-3M
A549 = tested on: A549
UO-31 = tested on: UO-31
NCI/ADR-RES = tested on: NCI/ADR-RES
NCI-H23 = tested on: NCI-H23

Measured: GI50

O=C(O)CCCCn1cnc2c(S)ncnc21
inactive: MDA-MB-435 > 100 µM | UACC-62 > 100 µM | EKVX > 100 µM | OVCAR-8 > 100 µM | LOX IMVI > 100 µM | TK-10 > 100 µM | CCRF-CEM 4.33 µM | SK-MEL-2 > 100 µM | 786-0 > 100 µM | SN12C > 100 µM | OVCAR-4 > 100 µM | M14 > 100 µM | A498 > 100 µM | SK-MEL-28 > 100 µM | NCI-H226 > 100 µM | Malme-3M > 100 µM | A549 > 100 µM | UO-31 > 100 µM | NCI/ADR-RES > 100 µM | NCI-H23 > 100 µM

CC(=O)NCCC1CN(C(=O)/C=C\I)c2ccccc21 (stereo not given)
inactive: MDA-MB-435 14.2 µM | UACC-62 13 µM | EKVX 17.3 µM | OVCAR-8 16.2 µM | LOX IMVI 3.08 µM | TK-10 6.17 µM | CCRF-CEM 3.03 µM | SK-MEL-2 16 µM | 786-0 10.6 µM | SN12C 4.97 µM | OVCAR-4 18.9 µM | M14 11.7 µM | A498 18.4 µM | SK-MEL-28 16 µM | NCI-H226 10.7 µM | Malme-3M 15.2 µM | A549 13.8 µM | UO-31 7.69 µM | NCI/ADR-RES 25.5 µM | NCI-H23 16.4 µM

CC(OC(C)(C)C)C(NC(=O)OCC1c2ccccc2-c2ccccc21)C(=O)NC(Cc1ccccc1)C(=O)OCc1ccccc1 (stereo not given) (Fmoc-Thr(tBu)-Phe-OBn; configuration not given here)
inactive: MDA-MB-435 > 100 µM | UACC-62 > 100 µM | EKVX > 100 µM | OVCAR-8 > 100 µM | LOX IMVI > 100 µM | TK-10 > 100 µM | CCRF-CEM > 100 µM | SK-MEL-2 > 100 µM | 786-0 > 100 µM | SN12C > 100 µM | OVCAR-4 > 100 µM | M14 > 100 µM | A498 > 100 µM | SK-MEL-28 > 100 µM | NCI-H226 > 100 µM | Malme-3M > 100 µM | A549 > 100 µM | UO-31 > 46.6 µM | NCI/ADR-RES > 100 µM | NCI-H23 > 100 µM

CCOP(=O)(OCC)/C(C#N)=C/c1cnc(C)[nH]1
inactive: MDA-MB-435 > 100 µM | UACC-62 > 100 µM | EKVX > 100 µM | OVCAR-8 > 100 µM | LOX IMVI > 100 µM | TK-10 > 100 µM | CCRF-CEM > 100 µM | SK-MEL-2 > 100 µM | 786-0 > 100 µM | SN12C > 100 µM | OVCAR-4 > 100 µM | M14 > 100 µM | A498 > 100 µM | SK-MEL-28 > 100 µM | NCI-H226 > 100 µM | Malme-3M > 100 µM | A549 > 100 µM | UO-31 > 100 µM | NCI/ADR-RES > 100 µM | NCI-H23 > 100 µM

Cc1occc1C(=S)Nc1ccc(Cl)c(/C=N/OC(C)C)c1
inactive: MDA-MB-435 16.4 µM | UACC-62 14.5 µM | EKVX 23 µM | OVCAR-8 22.8 µM | LOX IMVI 16 µM | TK-10 25.5 µM | CCRF-CEM 18.1 µM | SK-MEL-2 19.2 µM | 786-0 18.5 µM | SN12C 16.8 µM | OVCAR-4 24.9 µM | M14 23.3 µM | A498 19.2 µM | SK-MEL-28 27 µM | NCI-H226 18.2 µM | Malme-3M 19.8 µM | A549 22.3 µM | UO-31 19.4 µM | NCI/ADR-RES 22.2 µM | NCI-H23 20.1 µM

Cc1ccc(/N=N\c2c(O)c(S(=O)(=O)O)cc3cc(S(=O)(=O)O)ccc23)c(C)c1
inactive: MDA-MB-435 > 100 µM | UACC-62 > 100 µM | EKVX > 100 µM | OVCAR-8 > 100 µM | LOX IMVI > 100 µM | TK-10 > 100 µM | CCRF-CEM > 100 µM | SK-MEL-2 > 100 µM | 786-0 > 100 µM | SN12C > 100 µM | OVCAR-4 > 100 µM | M14 > 100 µM | A498 > 100 µM | SK-MEL-28 > 100 µM | NCI-H226 > 100 µM | Malme-3M > 100 µM | A549 > 100 µM | UO-31 > 100 µM | NCI/ADR-RES > 100 µM | NCI-H23 > 100 µM

CN(CCCNC(=O)c1cn(C)c2c1Cc1ccccc1-2)CCCNC(=O)c1cn(C)c2c1Cc1ccccc1-2
inactive: MDA-MB-435 2.21 µM | UACC-62 13.8 µM | EKVX 9.4 µM | OVCAR-8 5.86 µM | LOX IMVI 6.82 µM | TK-10 11.6 µM | CCRF-CEM 2.74 µM | SK-MEL-2 16.7 µM | 786-0 4.83 µM | SN12C 13.4 µM | OVCAR-4 12.8 µM | M14 3.81 µM | A498 11.9 µM | SK-MEL-28 10.8 µM | NCI-H226 17.2 µM | Malme-3M 11.7 µM | A549 15.8 µM | UO-31 9.16 µM | NCI/ADR-RES 12.5 µM | NCI-H23 14.2 µM
